Results published in ChEMBL document CHEMBL1201862, “PubChem BioAssay data set” (2004).
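48-hour exposure; five concentrations; linearly interpolated endpoints. GI50: concentration for 50% inhibition of growth.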 Active and inactive are the calls of the source. No stated cut-off is given here; in the data, active = GI50 up to about 1.1 µM and inactive = higher.

Experiments:
Test in all cases: NCI anticancer screen, dose series, 48 h
[1] = test system: HCC 2998
[2] = test system: SNB-19
[3] = test system: SK-MEL-28
[4] = test system: A498
[5] = test system: UO-31
[6] = test system: TK-10
[7] = test system: NCI-H23
[8] = test system: SF-295
[9] = test system: SNB-75
[10] = test system: CCRF-CEM
[11] = test system: SW-620
[12] = test system: HCT-15
[13] = test system: SF-268
[14] = test system: U-251
[15] = test system: IGROV-1
[16] = test system: OVCAR-3
[17] = test system: MDA-N
[18] = test system: MCF7
[19] = test system: DU-145

Row | SMILES | GI50 [1] | GI50 [2] | GI50 [3] | GI50 [4] | GI50 [5] | GI50 [6] | GI50 [7] | GI50 [8] | GI50 [9] | GI50 [10] | GI50 [11] | GI50 [12] | GI50 [13] | GI50 [14] | GI50 [15] | GI50 [16] | GI50 [17] | GI50 [18] | GI50 [19]
1 | CCCC/C=C1\CCC(CN2CCCC2)C1=O (stereo unspecified) | 18.7 µM (inactive) | 21.8 µM (inactive) | 15.7 µM (inactive) | 14.7 µM (inactive) | 17.2 µM (inactive) | 2.59 µM (inactive) | 17.7 µM (inactive) | 18.1 µM (inactive) | 18.4 µM (inactive) | 3.5 µM (inactive) | 2.07 µM (inactive) | 3.13 µM | 16 µM (inactive) | 6.75 µM (inactive) | 18.4 µM (inactive) | 17.1 µM (inactive) |  |  | 
2 | N=C(NNS(=O)(=O)c1ccccc1)Oc1ccc(Br)cc1Br | > 100 µM (inactive) | > 100 µM (inactive) | > 100 µM (inactive) | > 100 µM (inactive) | > 100 µM (inactive) | > 100 µM (inactive) | 84.7 µM (inactive) | > 100 µM (inactive) | 94.2 µM (inactive) | 71.4 µM (inactive) | 11.9 µM (inactive) | > 100 µM | > 100 µM (inactive) | > 100 µM (inactive) | > 100 µM (inactive) | > 100 µM (inactive) |  |  | 
3 | CCc1n[nH]c(=O)n1/N=C/c1ccccc1O | > 100 µM (inactive) | > 100 µM (inactive) | > 100 µM (inactive) |  | > 100 µM (inactive) | > 100 µM (inactive) | > 100 µM (inactive) | > 100 µM (inactive) | > 100 µM (inactive) | > 100 µM (inactive) | > 100 µM (inactive) | > 100 µM | > 100 µM (inactive) | > 100 µM (inactive) | 64.9 µM (inactive) | > 100 µM (inactive) | > 100 µM (inactive) | > 100 µM (inactive) | > 100 µM (inactive)
4 | OCCN(CCO)c1ncnc2c1sc(=S)n2-c1ccccc1 | > 100 µM (inactive) | > 100 µM (inactive) | > 100 µM (inactive) | 46 µM (inactive) | > 100 µM (inactive) | > 100 µM (inactive) | > 100 µM (inactive) | > 100 µM (inactive) | > 100 µM (inactive) | > 100 µM (inactive) | > 100 µM (inactive) | > 100 µM | > 100 µM (inactive) | > 100 µM (inactive) | > 100 µM (inactive) | > 100 µM (inactive) |  |  | 
5 | CCOC(=O)C12CCSC1C1(C#N)C(C#N)=CC2(N=P(c2ccccc2)(c2ccccc2)c2ccccc2)n2c(=O)n(-c3ccccc3)c(=O)n21 (stereo unspecified) | 27.7 µM (inactive) | 39.3 µM (inactive) | 27.5 µM (inactive) | 51.5 µM (inactive) | 24.2 µM (inactive) | > 100 µM (inactive) | 49.7 µM (inactive) | 36.6 µM (inactive) | 47 µM (inactive) | 34.5 µM (inactive) | 64 µM (inactive) | 34.8 µM | 35.1 µM (inactive) | 42.4 µM (inactive) | 59.8 µM (inactive) | 25.4 µM (inactive) |  |  | 
6 | COc1cccc(-c2c(-c3ccccc3)[nH]c(C)c2C(=O)ONC(=O)c2ccccc2)c1 | 14.4 µM (inactive) | 7.89 µM (inactive) | 14.7 µM (inactive) | 15 µM (inactive) | 0.128 µM (active) | 9.08 µM (inactive) | 11.6 µM (inactive) | 2.55 µM (inactive) | 5.86 µM (inactive) | 3.21 µM (inactive) | 13.6 µM (inactive) | 12.1 µM | 7.57 µM (inactive) | 3.14 µM (inactive) | 1.66 µM (inactive) | 6.38 µM (inactive) |  | 8.85 µM (inactive) | 2.59 µM (inactive)
7 | N#CC1=C(N)Oc2c(ccc3cccnc23)C1c1ccccc1 (stereo unspecified) | 4.69 µM (inactive) | 5.3 µM (inactive) | 6.12 µM (inactive) | 2.21 µM (inactive) | 4.46 µM (inactive) | 3.9 µM (inactive) | 1.31 µM (inactive) | 0.515 µM (active) | 0.731 µM (active) | 1.44 µM (inactive) | 0.51 µM (active) | 0.443 µM | 2.73 µM (inactive) | 0.908 µM (active) | 0.847 µM (active) | 0.608 µM (active) |  |  | 
